Source: patent US20250145594A1, “MODULATORS OF THE INTEGRATED STRESS PATHWAY” (Calico Life Sciences LLC, priority 2020, published 2025)

Tested on: ATF4 luciferase reporter in HEK293T cells
Experiment: ATF4-Luc assay (in vitro model of VWMD)
Format: cell-based, human
Settings: Homo sapiens, HEK-293T, 7 h, HEK293T cells carrying the ATF4 luciferase reporter, 1 μg/mL tunicamycin, One Glo luminescence
How it was run: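 Stable HEK293T line expressing firefly luciferase behind the human ATF4 5′-UTR, treated with 1 μg/mL tunicamycin plus compound for 7 hours. Luminescence read with One Glo; EC50 determined.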

With `O=C(NC12CC(n3cc(COCCOC(F)(F)F)nn3)(C1)C2)[C@H]1C[C@@H](O)c2cc(Cl)ccc2O1` [Compound 522, (2R,4R)-6-chloro-4-hydroxy-N-[3-(4-{[2-(trifluoromethoxy)ethoxy]methyl}-1H-1,2,3-triazol-1-yl)bicyclo[1.1.1]pentan-1-yl]-3,4-dihydro-2H-1-benzopyran-2-carboxamide] the EC50 was < 10 nM.
With `O=C(NC12CC(n3cc(-c4ccc(OC(F)(F)F)cn4)cn3)(C1)C2)[C@H]1C[C@@H](O)c2cc(C(F)(F)F)c(F)cc2O1` [Compound 485, (2R,4R)-7-fluoro-4-hydroxy-N-(3-{4-[5-(trifluoromethoxy)pyridin-2-yl]-1H-pyrazol-1-yl}bicyclo[1.1.1]pentan-1-yl)-6-(trifluoromethyl)-3,4-dihydro-2H-1-benzopyran-2-carboxamide] the EC50 was < 10 nM.
In the case of `O=C(NC12CC(n3cc(-c4ccc(OC(F)F)nc4)cn3)(C1)C2)[C@H]1C[C@@H](O)c2cc(Cl)ccc2O1` [Compound 327, (2R,4R)-6-chloro-N-(3-{4-[6-(difluoromethoxy)pyridin-3-yl]-1H-pyrazol-1-yl}bicyclo[1.1.1]pentan-1-yl)-4-hydroxy-3,4-dihydro-2H-1-benzopyran-2-carboxamide], the EC50 is reported as < 10 nM.
With `COc1cc2cn(C34CC(NC(=O)[C@H]5C[C@@H](O)c6cc(C(F)(F)F)ccc6O5)(C3)C4)nc2cn1` [Compound 499, (2R,4R)-4-hydroxy-N-[3-(5-methoxy-2H-pyrazolo[3,4-c]pyridin-2-yl)bicyclo[1.1.1]pentan-1-yl]-6-(trifluoromethyl)-3,4-dihydro-2H-1-benzopyran-2-carboxamide] the EC50 was 10 to 50 nM.
Work on `O=C(NC12CC(n3cc(O[C@H]4C[C@H](COC(F)(F)F)C4)cn3)(C1)C2)[C@H]1C[C@@H](O)c2cc(Cl)ccc2O1` [Compound 588, (2R,4R)-6-chloro-4-hydroxy-N-{3-[4-(((1r,3R)-3-[(trifluoromethoxy)methyl]cyclobutyl}oxy)-1H-pyrazol-1-yl]bicyclo[1.1.1]pentan-1-yl)-3,4-dihydro-2H-1-benzopyran-2-carboxamide] yielded an EC50 of 10 to 50 nM.
`O=C(NC12CCC(n3cc(C(=O)N4CC[C@H](OC(F)(F)F)C4)cn3)(CC1)CC2)[C@H]1C[C@@H](O)c2cc(Cl)ccc2O1` [Compound 331, (2R,4R)-6-chloro-4-hydroxy-N-(4-{4-[(3S)-3-(trifluoromethoxy)pyrrolidine-1-carbonyl]-1H-pyrazol-1-yl}bicyclo[2.2.2]octan-1-yl)-3,4-dihydro-2H-1-benzopyran-2-carboxamide] was tested, and the EC50 was < 10 nM.
With `O=C(NC12CC(n3cnc(C(=O)N4CC[C@H](OC(F)(F)F)C4)c3)(C1)C2)[C@H]1C[C@@H](O)c2cc(Cl)ccc2O1` [Compound 386, (2R,4R)-6-chloro-4-hydroxy-N-(3-{4-[(3S)-3-(trifluoromethoxy)pyrrolidine-1-carbonyl]-1H-imidazol-1-yl}bicyclo[1.1.1]pentan-1-yl)-3,4-dihydro-2H-1-benzopyran-2-carboxamide] the EC50 was < 10 nM.
`O=C(CO[C@H]1C[C@@H](OC(F)(F)F)C1)NC12CC(NC(=O)[C@@H]3C[C@@H](O)c4cc(Cl)c(F)cc4O3)(C1)C2` [Compound 491, (2S,4R)-6-chloro-7-fluoro-4-hydroxy-N-[3-(2-{[(1s,3R)-3-(trifluoromethoxy)cyclobutyl]oxy}acetamido)bicyclo[1.1.1]pentan-1-yl]-3,4-dihydro-2H-1-benzopyran-2-carboxamide] was tested, and the EC50 was < 10 nM.
For `O=C(NC12CC(n3cc(-c4ccn(CC(F)(F)F)c4)cn3)(C1)C2)[C@H]1C[C@@H](O)c2cc(Cl)ccc2O1` [Compound 547, (2R,4R)-6-chloro-4-hydroxy-N-(3-{4-[1-(2,2,2-trifluoroethyl)-1H-pyrrol-3-yl]-1H-pyrazol-1-yl}bicyclo[1.1.1]pentan-1-yl)-3,4-dihydro-2H-1-benzopyran-2-carboxamide], the EC50 was < 10 nM.
`O=C(NC12CC(n3cnc(-c4c(F)cc(Cl)cc4F)c3)(C1)C2)[C@H]1C[C@@H](O)c2cc(Cl)ccc2O1` [Compound 344, (2R,4R)-6-chloro-N-{3-[4-(4-chloro-2,6-difluorophenyl)-1H-imidazol-1-yl]bicyclo[1.1.1]pentan-1-yl}-4-hydroxy-3,4-dihydro-2H-1-benzopyran-2-carboxamide] was tested, and the EC50 was < 10 nM.
`O=C(COc1ccc(Cl)c(F)c1)NC12CCC(n3cc(C(=O)N4CC[C@H](OC(F)(F)F)C4)cn3)(CC1)CC2` [Compound 624, 2-(4-chloro-3-fluorophenoxy)-N-(4-{4-[(3S)-3-(trifluoromethoxy)pyrrolidine-1-carbonyl]-1H-pyrazol-1-yl}bicyclo[2.2.2]octan-1-yl)acetamide] was tested, and the EC50 was < 10 nM.
In the case of `O=C(NC12CC(n3cc([C@H]4C[C@@H](OC(F)(F)F)C4)cn3)(C1)C2)[C@H]1C[C@@H](O)c2cc(Cl)ccc2O1` [Compound 330, (2R,4R)-6-chloro-4-hydroxy-N-(3-{4-[cis-3-(trifluoromethoxy)cyclobutyl]-1H-pyrazol-1-yl}bicyclo[1.1.1]pentan-1-yl)-3,4-dihydro-2H-1-benzopyran-2-carboxamide], the EC50 is reported as < 10 nM.
For `COc1cc2cn(C34CC(NC(=O)[C@H]5C[C@@H](O)c6cc(Cl)c(Cl)cc6O5)(C3)C4)nc2cn1` [Compound 503, (2R,4R)-6,7-dichloro-4-hydroxy-N-[3-(5-methoxy-2H-pyrazolo[3,4-c]pyridin-2-yl)bicyclo[1.1.1]pentan-1-yl]-3,4-dihydro-2H-1-benzopyran-2-carboxamide], the EC50 was < 10 nM.
In the case of `O=C(NC12CC(n3cc(COCCOC(F)(F)F)nn3)(C1)C2)[C@H]1C[C@@H](O)c2cc(Cl)c(F)cc2O1` [Compound 467, (2R,4R)-6-chloro-7-fluoro-4-hydroxy-N-[3-(4-{[2-(trifluoromethoxy)ethoxy]methyl}-1H-1,2,3-triazol-1-yl)bicyclo[1.1.1]pentan-1-yl]-3,4-dihydro-2H-1-benzopyran-2-carboxamide], the EC50 is reported as < 10 nM.
For `O=C(NC12CC(n3cc(CCCC(F)(F)F)cn3)(C1)C2)[C@H]1C[C@@H](O)c2cc(Cl)c(F)cc2O1` [Compound 520, (2R,4R)-6-chloro-7-fluoro-4-hydroxy-N-{3-[4-(4,4,4-trifluorobutyl)-1H-pyrazol-1-yl]bicyclo[1.1.1]pentan-1-yl}-3,4-dihydro-2H-1-benzopyran-2-carboxamide], the EC50 was 10 to 50 nM.
In the case of `O=C(NC12CC(n3cc(N4CC[C@@H](OC(F)(F)F)C4)cn3)(C1)C2)[C@H]1C[C@@H](O)c2cc(Cl)c(F)cc2O1` [Compound 389, (2R,4R)-6-chloro-7-fluoro-4-hydroxy-N-(3-{4-[(3R)-3-(trifluoromethoxy)pyrrolidin-1-yl]-1H-pyrazol-1-yl}bicyclo[1.1.1]pentan-1-yl)-3,4-dihydro-2H-1-benzopyran-2-carboxamide], the EC50 is reported as < 10 nM.
`O=C(NC12CC(n3cc(C4CC(COC(F)(F)F)C4)nn3)(C1)C2)[C@H]1C[C@@H](O)c2cc(Cl)ccc2O1` (stereo partly drawn) [Compound 541, (2R,4R)-6-chloro-4-hydroxy-N-[3-(4-{3-[(trifluoromethoxy)methyl]cyclobutyl}-1H-1,2,3-triazol-1-yl)bicyclo[1.1.1]pentan-1-yl]-3,4-dihydro-2H-1-benzopyran-2-carboxamide] was tested, and the EC50 was < 10 nM.
`O=C(NC12CC(n3cc(OCCOC(F)(F)F)cn3)(C1)C2)C1CNc2cc(C(F)(F)F)c(F)cc2O1` (stereo not drawn) [Compound 592, 7-fluoro-N-(3-{4-[2-(trifluoromethoxy)ethoxy]-1H-pyrazol-1-yl}bicyclo[1.1.1]pentan-1-yl)-6-(trifluoromethyl)-3,4-dihydro-2H-1,4-benzoxazine-2-carboxamide] gave an EC50 of 10 to 50 nM.
